Here are results for one substance from PMC12867150, “A fungi-derived cyclic peptide enhances Th9-mediated antitumor immunity by targeting ZAP70 and SREBP1” (The Journal of Clinical Investigation, 2025).

Assay [1] concerns chromatin accessibility in Th9 cells. Briefly: Bulk ATAC-seq of Th9 cells (Figure 3C, S3E). In kind it is cell-based, mouse. The note with it: result in words. The text has this:
Raw FASTQ reads were subjected to quality control using Trim Galore to remove adapter sequences and low-quality bases. Cleaned reads were aligned to the GRCm38 mouse reference genome using Bowtie2. Low-quality alignments were filtered out using SAMtools, and PCR duplicates were removed using Sambamba to reduce technical artifacts. ENCODE blacklist regions were excluded using BEDtools. Read positions were adjusted using alignmentSieve, followed by sorting and indexing with SAMtools to generate BAM files. Peak calling was conducted using MACS3 to identify regions of open chromatin indicative of accessible regulatory elements.

A further assay concerns PD-1 on T cells. Briefly: PD-1 expression on donor Th9 and endogenous CD8+/CD4+ T cells from spleens (S4J-L). The note with it: for Expression of PD-1 of transferred CD45.1⁺ OT-II Th9 cells in spleen: Supplemental Figure 4J; for Expression of PD-1 of endogenous CD8⁺ T cells in spleen: Supplemental Figure 4K; for Expression of PD-1 of endogenous CD4⁺ T cells in spleen: Supplemental Figure 4L. The assay is classed as in vivo, mouse. The procedure:
C57BL/6 mice were subcutaneously injected with 5 × 10^5 B16-OVA melanoma cells. Five days after tumor implantation, mice received an intravenous infusion of 2 × 10^6 in vitro–differentiated Th9 cells (cultured for 5 days), which were derived from OT-II CD45.1 donor mice, accompanied by 4 × 10^5 OVA peptide–pulsed DCs via the tail vein. To enhance T cell engraftment and facilitate lymphodepletion, a single intraperitoneal injection of cyclophosphamide (200 mg/kg, Sigma, catalog C0768) was administered 1 day prior to T cell transfer. Mice were euthanized at designated time points for the collection and analysis of spleens, tumor-draining lymph nodes, and tumor tissues.
Details regarding staining panels (human and mouse), reagents (including clones and catalog numbers), acquisition settings, compensation/controls, and analysis procedures are provided in Supplemental Methods.
CD45.1+ T Cells in Tumors
CtrlEpA Ctrl EpA GzmB Ctrl EpA
CtrlEpA CtrlEpA GzmB Ctrl EpA
J CD45.1+ T Cells in Spleens K CD8+ T Cells in Spleens L CD4+ T Cells in Spleens […]
PD-1 0 CtrlEpA PD-1 0 CtrlEpA PD-1 0 CtrlEpA […]
cells and endogenous T cells.
(A–C) Mean fluorescence intensity (MFI) of IFN-γ (A) and TNF-α (B), and representative flow-cytometric plots with quantification of Granzyme B⁺ Perforin⁺ cells (C) among adoptively transferred CD45.1⁺ Th9 cells in tumors. (D–F) MFI of IFN-γ (D) and TNF-α (E), and representative plots with quantification of Granzyme B⁺ Perforin⁺ cells (F) among tumor-infiltrating CD8⁺ T cells. (G–I) MFI of IFN-γ (G) and TNF-α (H), and representative plots with quantification of Granzyme B⁺ Perforin⁺ cells (I) among tumor-infiltrating CD4⁺ T cells. (J–L) PD-1 expression in adoptively transferred CD45.1⁺ Th9 cells (J), endogenous CD8⁺ T cells (K), and endogenous CD4⁺ T cells (L) from spleens of tumor-bearing mice. Data in (A–L) are shown as mean ± SEM from n = 4 mice per group. Statistical analysis was performed using two-tailed unpaired Student’s t-test (A–L). ns, not significant. *p < 0.05, **p […]
(also on this page, place not known: IFN -γ MFIofTNF-α CtrlEpACtrlEpA MFIofIFN-γ 1500MFIofTNF-α MFIofIFN-γ 800MFIofTNF-α CtrlEpA0 CtrlEpA0 CtrlEpA0 MFI of (×103Ď CtrlEpA0 MFI of PD-1 (×103) MFI of PD-1 (×103) CtrlEpAPD-1 HG FE GzmB+ PRF1+ of CD45.1+ cells (%) GzmB+ PRF1+ of CD8+ cells (%) GzmB+ PRF1+ of CD4+ cells (%) PRF1 PRF1 PRF1 0.3887.5 MFIofIFN-γ) […]

Assay [2] relates to mitochondria of Th9 cells. Briefly: Flow cytometry of mitochondrial membrane potential with TMRM (Figure 4N). The assay is classed as cell-based, mouse. The method, then:
Mitochondrial mass and membrane potential were assessed using MitoTracker™ Deep Red FM (Thermo Fisher Scientific, catalog M22426) and TMRM (tetramethylrhodamine methyl ester; Macklin, catalog T868125), respectively, following the manufacturers’ protocols. Cells were incubated with the respective dyes, washed, and subjected to flow cytometry or fluorescence microscopy analysis. For ultrastructural assessment, mitochondrial number and diameter were quantified from high-resolution transmission electron microscopy (TEM) images using ImageJ software.
On the technique in general: Flow cytometry measures light scatter and fluorescence of single cells or particles in a stream.

Another assay has as its system human Th9 cells. Briefly: Intracellular ATP of human Th9 cells (Figure 8E). The assay is classed as cell-based. The note with it: result in words. The procedure:
For Th9 polarization, cultures were supplemented with IL-4 (10 ng/mL, PeproTech, catalog AF-200-04), TGF-β (1 ng/mL), and neutralizing anti–IFN-γ monoclonal antibody (10 μg/mL, clone B27, BioXcell, catalog BE0245). After 3 days of initial culture, cells were either collected for downstream assays or continued in extended culture with refreshed cytokines to maintain lineage commitment without antibodies. Th9 cells were collected at days 4, 5, and 6 for subsequent in vitro assays. For adoptive transfer studies, day 4–cultured Th9 cells were washed and prepared for intravenous injection.
Intracellular adenosine triphosphate (ATP) levels were measured using a chemiluminescent ATP assay kit (Beyotime, catalog S0026) according to the manufacturer’s protocol. Briefly, cells were lysed and incubated with the luciferase-based detection reagent, and the resulting luminescent signal was detected using an Infinite M200 multimode microplate reader (TECAN). ATP concentrations were calculated based on a standard curve and normalized to cell number or protein content where applicable.

Values joined by “and” are separate entries in the source; they are usually repeats but may differ in a detail not shown here. Equal values may be shown once.

Consider anteiso-C15 Leu7 surfactin [EpA], for which, in assay [1], the “Ifng accessibility and expression” value is recorded as “further reduced”; the “Il9 locus accessibility and transcription” value is “increased accessibility and transcription”; the global chromatin accessibility entry is given as “only modestly affected”. Moreover, the PD-1 expression result with PD-1 on T cells (donor Th9 and endogenous T cells, result in words) is listed as “comparable between groups”. Besides, in the assay with PD-1 on T cells (replicate 1), the “Expression of PD-1 of transferred CD45.1⁺ OT-II Th9 cells in spleen” value is recorded as 5868, the “Expression of PD-1 of endogenous CD8⁺ T cells in spleen” value is 1931 and the “Expression of PD-1 of endogenous CD4⁺ T cells in spleen” value is on record as 6299. In the assay with PD-1 on T cells (replicate 2), the “Expression of PD-1 of transferred CD45.1⁺ OT-II Th9 cells in spleen” value came out at 7923, the “Expression of PD-1 of endogenous CD8⁺ T cells in spleen” value is reported as 1939 and the “Expression of PD-1 of endogenous CD4⁺ T cells in spleen” value turned out to be 5672. Besides, in the assay on PD-1 on T cells (replicate 3), the “Expression of PD-1 of transferred CD45.1⁺ OT-II Th9 cells in spleen” value is listed as 10955, the “Expression of PD-1 of endogenous CD8⁺ T cells in spleen” value is given as 2374 and the “Expression of PD-1 of endogenous CD4⁺ T cells in spleen” value was determined as 6004. In addition, in the assay on PD-1 on T cells (replicate 4), the “Expression of PD-1 of transferred CD45.1⁺ OT-II Th9 cells in spleen” value is on record as 4100, the “Expression of PD-1 of endogenous CD8⁺ T cells in spleen” value is recorded as 1655 and the “Expression of PD-1 of endogenous CD4⁺ T cells in spleen” value stood at 4982. The TMRM in assay [2] (Figure 4N, individual replicates, (n = 5)) was 178315 and 162266 and 165932 and 168795 and 170537. Moreover, the mitochondrial membrane potential entry in assay [2] (result in words) is reported as “elevated mitochondrial membrane potential”. The “ATP production, human Th9” value with human Th9 cells is given as “increased”.
